Molecules are shown by their SMILES. “Also recorded” adds a separate entry of the source.

For assay [1], the system named is latent DHIV-GFP, X4 virus in nonpolarized T helper cells. The assay can be described thus: Primary T-cell model of latency, ex vivo differentiated nonpolarized CD4+ T cells. The format is cell-based, HIV-1. The conditions noted are these: 96 h after compound addition; minor effect only at highest doses.
Assay [2] deals with latent HIV (clone R7/E-/GFP) in Jurkat T cells. The assay can be described thus: Reactivation of latent HIV in polyclonal Jurkat T cells (clone R7/E-/GFP), flow cytometry of GFP. The format is cell-based, HIV-1. How it is done:
A polyclonal population of Jurkat T cells containing latent HIV (clone R7/E-/GFP) was treated with increasing amounts of JQ1. This viral clone contains a frameshift mutation in the viral Env gene to prevent viral spread and expresses GFP in the Nef open reading frame, which allows separation of actively infected GFP^+ from GFP^− cells by cell sorting. GFP^− cells, which are mostly uninfected but contain a small fraction of latently infected cells with silenced HIV transcription, were treated with JQ1. Activation of transcription was measured by flow cytometry of GFP. […] Stimulation of cells with JQ1 produced up to fivefold more GFP-expressing cells than control-treated cells.
HIV clones R7/E-/GFP and NL4-3/E-/GFP-IRES-nef were derived from pR7-GFP and pNLENG1-EGFP by mutating the Env gene by inserting an early stop codon in the NdeI site. […]. Jurkat cells were spininfected with 25 ng of p24 per 10^6 cells, and GFP^− cells where collected in two rounds of cell sorting 5 and 15 days after infection. The expanded population of GFP^− cells, composed of uninfected and latently infected cells, was seeded in 96-well plates and treated with the indicated concentration of drugs in duplicates. The percentage of GFP^+ cells was detected after 24 h at the MACSQuant VYB FACS analyzer. Data are expressed as the mean percentage of GFP^+ cells, subtracting the average percentage of spontaneous GFP-reactivation in the untreated samples. (A) Jurkat cells containing latent R7/E-/GFP virus were treated with JQ1 or (R)-JQ1 in combination with Prostratin (0.5 μM), SAHA (2.5 μM), TNFα (1 ng/μl), or control at the indicated concentrations for 18 h, followed by flow cytometry analysis. […] Results represent average of two independent experiments. All treatments in (A) and (B) on the X axis are in μM.
Background: Flow cytometry measures light scatter and fluorescence of single cells or particles in a stream.

For assay [3], the system named is latent HIV-1 in Bcl-2-transduced resting CD4+ T cells. The format is cell-based. The conditions noted are these: 24-72 h, average of two donors.
The subject of assay [4] is HIV LTR promoter driving destabilized GFP in Jurkat cells. The assay can be described thus: Single-cell time-lapse fluorescence microscopy of LTR-GFP Jurkat cells (two-state transcription model). The format is cell-based. The protocol:
Lentiviral vectors expressing the LTR-GFP cassette in the absence of Tat were used to infect 5×10^5 Jurkat cells at a multiplicity of infection <0.1, resulting in 25,000-50,000 infected cells each presumably with a unique integration site. Cells were then sorted by FACS to isolate green fluorescent protein-labeled (GFP^+) cells and fluorescently imaged on glass-bottom dishes in RPMI 1640 with 10% fetal calf serum and 1% penicillin-streptomycin and 1 μM JQ1 at t=0 h for the treated population. The imaging took place in humidified conditions at 37° C. and 5% CO2 for 12-24 hours with a 40× (1.2 NA) oil-immersion objective on a Zeiss Observer Z1 microscope equipped with an automated linear-encoded X-Y stage. Image processing and cell tracking were performed in Matlab™ with an in-house algorithm (Weinberger et al. Nature Genet 2008; 40:466-70) and a single 12-hour experiment could generate up to 1000 single-cell trajectories for analysis.
For each trajectory, noise autocorrelation (Φ(t)) and magnitude (CV2) were calculated using an established noise processing algorithm (Weinberger et al. Nature Genet 2008; 40:466-70; Austin D W et al., Nature 2006; 439:608-11) A published theory (Simpson M L, et al. J Theor Biol 2004; 229:383-94; Cox C D, et al. Proc Natl Acad Sci USA 2008; 105:10809-14) of the two-state transcriptional bursting model yields analytical expressions for the autocorrelation of the noise, Φ(τ), and noise magnitude. Derivations and calculated burst size and frequency have been reported (Singh A, et al. Biophysical Journal 2010; 98:L32-L4). Exogenous JQ1 addition can change either mean fluorescence, variability of expression (defined by the coefficient of variation, CV), or both. Modeling of 2-state transcription enables the differentiation between modulations in transcriptional initiation (Dkon) or in the burst size (DT/koff).
To biophysically characterize the Tat-independent JQ1 effect on the HIV LTR, single-cell time-lapse fluorescence microscopy was performed on ˜2,000 Jurkat cells where each cell carried a different integration site of the LTR promoter driving a destabilized GFP reporter (FIG. 24A). Mean fluorescence intensity (MFI) and the magnitude of intensity fluctuations (i.e. the ‘noise’) were quantified for sub-clusters of polyclonal cells in response to JQ1 treatment (FIG. 24). The data was analyzed using an established two-state model of episodic transcription in which the LTR switches between a transcriptional OFF state, where RNA polymerase II is stalled, and a transcriptional ON state where elongation occurs and multiple mRNA transcripts are produced at a rate=T (FIG. 24B). In this model, promoter switching occurs with rates kon and koff which generates pulses or bursts of transcription.
To determine how JQ1 influences these biophysical parameters (koff, kon, T), changes in LTR MFI and noise (measured by the coefficient of variation, CV, which is defined as the standard deviation over the mean) were examined and compared to the untreated LTR (FIG. 24C, D). By qualifying MFI and CV in time-lapse trajectories, changes in both burst frequency (kon) and burst size, or the # of mRNA produced per activity pulse, (T/koff) can be determined.

For the molecule `Cc1sc2c(c1C)C(c1ccc(Cl)cc1)=N[C@@H](CC(=O)OC(C)(C)C)c1nnc(C)n1-2` [JQ1, tert-Butyl 2-((6S)-4-(4-chlorophenyl)-2,3,9-trimethyl-6H-thieno[3,2-f][1,2,4]triazolo[4,3-a][1,4]diazepin-6-yl)acetate], the “reversal of latency (GFP)” value in assay [1] was “minor activatory effect”. Besides, in assay [2] (JQ1 alone), the “GFP-expressing cells relative to control-treated cells” value was “up to fivefold”. Besides, the “effect of adding JQ1 with SAHA” value in assay [2] (co-treatment with SAHA 2.5 μM, FIG. 20A, B (both viral clones)) is reported as “no additive or synergistic effects”. Besides, the “effect of co-treatment with TNFα on the JQ1 effect” value in assay [2] (co-treatment with TNFα, FIG. 20A, B (both viral clones)) is on record as “very modest enhancement”. Also, the “effect of adding JQ1 with prostratin” value in assay [2] (co-treatment with prostratin 0.5 μM, FIG. 20A, B (both viral clones)) is given as “Enhanced activation”. Besides, the “reactivation of HIV-1 (GFP+ cells)” value in assay [2] (compound alone, increasing amounts) is “reactivated HIV-1 in a dose-dependent manner”. In assay [3], the “reactivation of latent HIV-1 relative to costimulation with αCD3 and αCD28 antibodies” value is around 14%. Also, in assay [4] (1 μM JQ1, average), the “delay in transcriptional initiation” value was around 50 min and the “increase of mRNAs per pulse of transcriptional activity” value is around 15 mRNAs per pulse. In assay [4] (1 μM JQ1 vs untreated), the “LTR noise (coefficient of variation)” value is “increases”, the “average dwell time in the OFF state (1/kon)” value is recorded as “increases”, the “mean fluorescence intensity (MFI)” value was “without a significant shift” and the “transcription burst size (T/koff)” value was “enhancement; also recorded: increases”.

These data come from patent US20150133434A1, “Compositions and Methods for Reactivating Latent Immunodeficiency Virus” (priority 2012, published 2015).
